According to ChEMBL document CHEMBL2331510, “Antimycobacterial activity evaluation, time-kill kinetic and 3D-QSAR study of C-(3-aminomethyl-cyclohexyl)-methylamine derivatives” (Bioorg Med Chem Lett, 2013):
Values after ≈ are worked out from the molar mass of the structure shown. Active and inactive are the calls of the source. The calls are words filed in the database; no cut-off is given here.

What was measured:
[1] = system: Mycobacterium tuberculosis; assay: Antitubercular activity against Mycobacterium tuberculosis H37Rv after 5 days by fluorescence assay; assay type: functional; settings: 120 h
[2] = system: Mycobacterium tuberculosis; assay: Antitubercular activity against Mycobacterium tuberculosis H37Rv at 20 uM after 5 days by fluorescence assay; assay type: functional, organism-based
[3] = system: Mycobacterium tuberculosis; assay: Bactericidal activity against Mycobacterium tuberculosis H37Rv assessed as reduction in CFU at 10 times MIC by serial dilution-based time kill assay relative to control; assay type: functional, organism-based; settings: TDE = time-dependent effect
[4] = system: Mycobacterium tuberculosis; assay: Bactericidal activity against Mycobacterium tuberculosis H37Rv assessed as reduction in CFU over 4 days by serial dilution-based time kill assay relative to control; assay type: functional
[5] = system: Mycobacterium tuberculosis; assay: Bactericidal activity against Mycobacterium tuberculosis H37Rv assessed as reduction in CFU at 10 times MIC after 4 days by serial dilution-based time kill assay relative to control; assay type: functional, organism-based
[6] = system: Mycobacterium tuberculosis; assay: Bactericidal activity against Mycobacterium tuberculosis H37Rv assessed as log reduction in CFU at 10 times MIC over 2 days by serial dilution-based time kill assay relative to control; assay type: functional
[7] = Cytotoxicity against human RBC up to 500 ug/ml; assay type: cell-based; settings: erythrocyte

SMILES | MIC [1] | inhibition [2] | other results
Cc1cccc(CNCC2CCCC(CNCc3cccc(C)c3)C2)c1 (centres undefined) | > 20 µM | – | –
Cc1cc(C)cc(CNCC2CCCC(CNCc3cc(C)cc(C)c3)C2)c1 (centres undefined) | 17.5 µM (≈ 6.63 µg/mL) | – | –
Clc1ccc(CNCC2CCCC(CNCc3ccc(Cl)cc3)C2)cc1 (centres undefined) | 17.5 µM (≈ 6.85 µg/mL) | – | –
CCCCCCCc1ccc(CNCC2CCCC(CNCc3ccc(CCCCCCC)cc3)C2)cc1 (centres undefined) | 3.1 µM (≈ 1.61 µg/mL) | – | –
O=[N+]([O-])c1cccc(CNCC2CCCC(CNCc3cccc([N+](=O)[O-])c3)C2)c1 (centres undefined) | – | inactive | –
CCCCCCCCc1ccccc1CNCC1CCCC(CNCc2ccccc2CCCCCCCC)C1 (centres undefined) | 16.1 µM (≈ 8.81 µg/mL) | – | –
c1ccc(CNCC2CCCC(CNCc3ccccc3)C2)cc1 (centres undefined) | – | inactive | –
CC(C)(C)c1ccc(CNCC2CCCC(CNCc3ccc(C(C)(C)C)cc3)C2)cc1.Cl.Cl (centres undefined) | 1.1 µM | – | Activity [3]: tde; Activity [4]: Dose-dependent effect; MBC ([4]; 96 h): 4.5 µM; Activity [5]: Active; FC [6]: 5; Activity [7]: Non-toxic
CCCCCc1ccccc1CNCC1CCCC(CNCc2ccccc2CCCCC)C1 (centres undefined) | 8.7 µM (≈ 4.03 µg/mL) | – | –
CCCCCCCc1ccccc1CNCC1CCCC(CNCc2ccccc2CCCCCCC)C1 (centres undefined) | 20 µM (≈ 10.4 µg/mL) | – | –
Fc1cccc(CNCC2CCCC(CNCc3cccc(F)c3)C2)c1 (centres undefined) | – | inactive | –
Brc1ccccc1CNCC1CCCC(CNCc2ccccc2Br)C1 (centres undefined) | > 20 µM | – | –
CCCCc1ccc(CNCC2CCCC(CNCc3ccc(CCCC)cc3)C2)cc1.Cl.Cl (centres undefined) | 2.4 µM | – | Activity [5]: Active; FC [6]: 5; Activity [7]: Non-toxic
CC(C)c1ccc(CNCC2CCCC(CNCc3ccc(C(C)C)cc3)C2)cc1 (centres undefined) | 4.4 µM (≈ 1.79 µg/mL) | – | –
CCCc1ccc(CNCC2CCCC(CNCc3ccc(CCC)cc3)C2)cc1 (centres undefined) | 4.2 µM (≈ 1.71 µg/mL) | – | –
Clc1ccccc1CNCC1CCCC(CNCc2ccccc2Cl)C1 (centres undefined) | – | inactive | –
Clc1cccc(Cl)c1CNCC1CCCC(CNCc2c(Cl)cccc2Cl)C1 (centres undefined) | – | inactive | –
Fc1ccc(CNCC2CCCC(CNCc3ccc(F)cc3)C2)cc1 (centres undefined) | – | inactive | –
c1ccc(N2CCN(c3ccc(CNCC4CCCC(CNCc5ccc(N6CCN(c7ccccc7)CC6)cc5)C4)cc3)CC2)cc1 (centres undefined) | 4.4 µM (≈ 2.83 µg/mL) | – | –
Cc1ccc(CNCC2CCCC(CNCc3ccc(C)cc3C)C2)c(C)c1 (centres undefined) | > 20 µM | – | –
c1cc(N2CCCCC2)ccc1CNCC1CCCC(CNCc2ccc(N3CCCCC3)cc2)C1 (centres undefined) | 13.8 µM (≈ 6.74 µg/mL) | – | –
Fc1cccc(F)c1CNCC1CCCC(CNCc2c(F)cccc2F)C1 (centres undefined) | – | inactive | –
Clc1ccc(CNCC2CCCC(CNCc3ccc(Cl)cc3Cl)C2)c(Cl)c1 (centres undefined) | 20 µM (≈ 9.21 µg/mL) | – | –

SMILES | MIC [1] | inhibition [2] | other results
CCCCCCc1ccccc1CNCC1CCCC(CNCc2ccccc2CCCCCC)C1 (centres undefined) | 8.8 µM (≈ 4.32 µg/mL) | – | –
Fc1cc(F)cc(CNCC2CCCC(CNCc3cc(F)cc(F)c3)C2)c1 (centres undefined) | – | inactive | –
FC(F)(F)c1ccccc1CNCC1CCCC(CNCc2ccccc2C(F)(F)F)C1 (centres undefined) | – | inactive | –
Brc1cccc(CNCC2CCCC(CNCc3cccc(Br)c3)C2)c1 (centres undefined) | 12.7 µM (≈ 6.1 µg/mL) | – | –
Cc1ccccc1CNCC1CCCC(CNCc2ccccc2C)C1 (centres undefined) | – | inactive | –
Cc1ccc(C)c(CNCC2CCCC(CNCc3cc(C)ccc3C)C2)c1 (centres undefined) | > 20 µM | – | –
CCCCCc1ccc(CNCC2CCCC(CNCc3ccc(CCCCC)cc3)C2)cc1 (centres undefined) | 6.7 µM (≈ 3.1 µg/mL) | – | –
Cc1ccc(CNCC2CCCC(CNCc3ccc(C)cc3)C2)cc1 (centres undefined) | > 20 µM | – | –
CCCCCCCCc1ccc(CNCC2CCCC(CNCc3ccc(CCCCCCCC)cc3)C2)cc1 (centres undefined) | 3.2 µM (≈ 1.75 µg/mL) | – | –
CN1CCN(c2ccc(CNCC3CCCC(CNCc4ccc(N5CCN(C)CC5)cc4)C3)cc2)CC1 (centres undefined) | – | inactive | –
O=[N+]([O-])c1ccc(CNCC2CCCC(CNCc3ccc([N+](=O)[O-])cc3)C2)cc1 (centres undefined) | – | inactive | –
CCCCCCc1ccc(CNCC2CCCC(CNCc3ccc(CCCCCC)cc3)C2)cc1 (centres undefined) | 5.6 µM (≈ 2.75 µg/mL) | – | –
COc1ccc(CNCC2CCCC(CNCc3ccc(OC)cc3)C2)cc1 (centres undefined) | – | inactive | –
Brc1ccc(CNCC2CCCC(CNCc3ccc(Br)cc3)C2)cc1 (centres undefined) | 12.2 µM (≈ 5.86 µg/mL) | – | –
O=[N+]([O-])c1ccccc1CNCC1CCCC(CNCc2ccccc2[N+](=O)[O-])C1 (centres undefined) | – | inactive | –
CCc1ccc(CNCC2CCCC(CNCc3ccc(CC)cc3)C2)cc1 (centres undefined) | 15.7 µM (≈ 5.94 µg/mL) | – | –
Fc1ccccc1CNCC1CCCC(CNCc2ccccc2F)C1 (centres undefined) | – | inactive | –
CC[C@@H](CO)NCCN[C@@H](CC)CO [ETHAMBUTOL] | 2 µM (≈ 0.409 µg/mL) | – | –
Clc1cccc(CNCC2CCCC(CNCc3cccc(Cl)c3)C2)c1 (centres undefined) | > 20 µM | – | –
FC(F)(F)c1ccc(CNCC2CCCC(CNCc3ccc(C(F)(F)F)cc3)C2)cc1 (centres undefined) | 12.5 µM (≈ 5.73 µg/mL) | – | –
Cc1ccc(CNCC2CCCC(CNCc3ccc(C)c(C)c3)C2)cc1C (centres undefined) | > 20 µM | – | –
c1cc(N2CCCC2)ccc1CNCC1CCCC(CNCc2ccc(N3CCCC3)cc2)C1 (centres undefined) | 9.5 µM (≈ 4.38 µg/mL) | – | –
